The target of one series is hCA IX (Homo sapiens, UniProt Q16790). The experiment in a line: Carbonic anhydrase inhibition assay, hCA IX. It is filed as biochemical. The procedure:
(§1) The protein quantity in the column effluents was determined spectrophotometrically at 280 nm. Sodium dodecyl sulphate polyacrylamide gel electrophoresis (SDS-PAGE) was applied with a Bio-Rad Mini Gel system Mini-PROTEINVR system (Hercules, CA), Bio-Rad Laboratories, Inc., China after purification of both CA isoenzymes. Briefly, it was performed in acrylamide for the running (10%) and the stacking gel (3%) contained SDS (0.1%), respectively. Activities of CA isoenzymes were determined according to a method by Verporte et al.[57]. The increase in absorbance of the reaction medium was spectrophotometrically recorded at 348 nm. Also, the quantity of protein was determined at 595 nm according to the Bradford method. Bovine serum albumin was used as standard protein. The IC50 values were obtained from activity (%) versus compounds plots. For calculation of KI values, three different concentrations were used. The Lineweaver–Burk curves were drawn and calculations were realised.

A further series deals with hCA XII (Homo sapiens, UniProt O43570). The experiment in a line: Carbonic anhydrase inhibition assay, hCA XII. In kind it is biochemical. How it is done:
as §1

In the next series the target is hCA I (Homo sapiens, UniProt P00915). As to the kind of experiment: Carbonic anhydrase inhibition assay, hCA I. It is filed as biochemical. How it is done: (§2) The purification of cytosolic CA isoenzymes (CA I and CA II) was previously described with a simple one-step method by a Sepharose-4B-L tyrosine-sulphanilamide affinity chromatography.
as §1

Another series deals with hCA II (Homo sapiens, UniProt P00918). The experiment in a line: Carbonic anhydrase inhibition assay, hCA II. In kind it is biochemical. The procedure:
as §2, §1

Chain of hCA XII (O43570 25-354): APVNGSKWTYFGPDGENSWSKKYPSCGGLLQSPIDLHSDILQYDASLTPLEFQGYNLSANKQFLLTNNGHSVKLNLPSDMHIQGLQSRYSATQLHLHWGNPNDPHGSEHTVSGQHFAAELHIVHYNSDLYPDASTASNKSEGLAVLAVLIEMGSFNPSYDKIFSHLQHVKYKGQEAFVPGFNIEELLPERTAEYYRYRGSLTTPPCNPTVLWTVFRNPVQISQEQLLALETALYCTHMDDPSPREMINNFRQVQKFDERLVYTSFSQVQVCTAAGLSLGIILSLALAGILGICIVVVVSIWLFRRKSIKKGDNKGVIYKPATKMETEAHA
Chain of hCA I (P00915 whole entry): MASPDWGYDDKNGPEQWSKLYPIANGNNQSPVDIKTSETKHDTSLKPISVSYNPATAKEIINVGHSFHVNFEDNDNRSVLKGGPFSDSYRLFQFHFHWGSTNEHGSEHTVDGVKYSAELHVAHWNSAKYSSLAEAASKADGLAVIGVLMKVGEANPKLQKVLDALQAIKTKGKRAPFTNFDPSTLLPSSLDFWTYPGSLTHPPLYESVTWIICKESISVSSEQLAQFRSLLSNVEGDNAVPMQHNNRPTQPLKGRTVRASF

One may read the melting point as the temperature, or range, at which the solid turns liquid. `Cc1ccc(-c2cs/c(=N\c3ccc(S(N)(=O)=O)cc3)n2C)cc1` [EMAC8002j] had a melting point of 252 to 254 °C.
What is called Ki is a dissociation constant, usually derived from enzyme kinetics or from competition with a known ligand. Regarding `Cn1c(-c2ccc(-c3ccccc3)cc2)csc1=Nc1ccc(S(N)(=O)=O)cc1` [EMAC8002i], the melting point lay within 254 to 255 °C. For the same compound, on hCA IX, the affinity corresponds to a Ki of 1390 nM. Moreover, on hCA XII, the affinity corresponds to a Ki of 9.5 nM. For the same compound, the “selective index hCA II/hCA XII” value at hCA XII (ratio of Ki hCA II to Ki hCA XII) is on record as “higher than 52”. The compound also came in with a Ki on hCA I of 8910 nM. The same compound gave an inhibitory constant (Ki) at hCA II of 503 nM.
`Cn1c(-c2cccc([N+](=O)[O-])c2)cs/c1=N\c1ccc(S(N)(=O)=O)cc1` [EMAC8002d] displayed a melting point of 235 to 236 °C.
Same read-out and setting: the result for `Cn1c(-c2ccc(C#N)cc2)cs/c1=N\c1ccc(S(N)(=O)=O)cc1` [EMAC8002f] reads 237 to 238 °C.
On to `Cn1c(-c2ccccc2)cs/c1=N\c1ccc(S(N)(=O)=O)cc1` [EMAC8002m], for which the melting point was in the range of 252 to 253 °C.
Same read-out and setting: the result for `Cn1c(-c2ccc(Cl)cc2)cs/c1=N\c1ccc(S(N)(=O)=O)cc1` [EMAC8002b] reads 241 to 242 °C.
On the same count and under the same terms, with `Cn1c(-c2ccc(F)cc2F)cs/c1=N\c1ccc(S(N)(=O)=O)cc1` [EMAC8002g] the figure was 239 to 240 °C; with `Cn1c(-c2ccc(Br)cc2)cs/c1=N\c1ccc(S(N)(=O)=O)cc1` [EMAC8002a], 256 to 259 °C.
The same measure, in the same setting: with `Cn1c(-c2ccc(Cl)cc2Cl)cs/c1=N\c1ccc(S(N)(=O)=O)cc1` [EMAC8002e] the figure was 256 to 257 °C; with `COc1ccc(-c2cs/c(=N\c3ccc(S(N)(=O)=O)cc3)n2C)cc1` [EMAC8002k], 243 to 244 °C; with `Cn1c(-c2ccc([N+](=O)[O-])cc2)cs/c1=N\c1ccc(S(N)(=O)=O)cc1` [EMAC8002h], 244 to 245 °C.
Consider `Cn1c(-c2ccc(F)cc2)cs/c1=N\c1ccc(S(N)(=O)=O)cc1` [EMAC8002c], for which the melting point was 230 to 233 °C.

The values above are taken from article PMC6713091, “Exploring new structural features of the 4-[(3-methyl-4-aryl-2,3-dihydro-1,3-thiazol-2-ylidene)amino]benzenesulphonamide scaffold for the inhibition of human carbonic anhydrases” (Journal of Enzyme Inhibition and Medicinal Chemistry, 2019).
